According to PMC11965660, “Isobavachalcone ameliorates Alzheimer disease pathology by autophagy-mediated clearance of amyloid beta and inhibition of NLRP3 inflammasome in primary astrocytes and 5x-FAD mice” (Frontiers in Pharmacology, 2025):
“Also recorded” adds a separate entry of the source.

Tests used:
LC3B and LAMP1 = LC3B and LAMP1 co-localization by confocal microscopy; assay type: cell-based, C57BL/6J mice; details: primary astrocytes, 10 μM, 24 h
Description: Cells were seeded on coverslips in 6 well plates. After treatments, cells were fixed with 4% paraformaldehyde (PFA) for 15 min and permeabilized with 0.1% Triton-X 100 for 7 min. Blocking was done for 30 min with 2% BSA, followed by overnight incubation with primary antibody. Alexa fluor conjugated secondary antibody incubation was given to cells for 1 h for labeling. The nucleus was stained with 4,6-diamidino-2-phenylindole (DAPI) (1 μg/mL) for 10 min. Following staining, the coverslips were mounted on slides using mounting media (PBS and glycerol at a ratio of 1:9). Cells were washed thrice with PBS after each incubation. The images were acquired in a CQ1 high-throughput imaging system.

Aβ42 [1] = assay: Aβ estimation in plasma by ELISA; assay type: in vivo, 5x-FAD mice; details: 25 and 50 mg/kg, vs untreated 5x-FAD control
Excerpt: (§1) Hemizygous 5x-FAD transgenic mice (B6.Cg-Tg(APPSwFlLon, PSEN1*M146L*L286V) 6799Vas/Mmjax; MMRRC Strain: 034848-JAX) on congenic C57BL/6J genetic background were used for experiments. The 5x-FAD mice were genotyped using APP-specific qPCR probes to detect the transgene as per the protocol of Jackson Laboratory. Six months old 5x-FAD mice were randomly divided into three groups (n = 5), based on their body weights, with three males and two females in each group. We used mixed-cohort of males and females for our study to exclude any gender biased effect of IBC. Also, AD symptoms are more pronounced in females than in males ([Aggarwal and Mielke, 2023]), making it possible that males and females respond differently to the drug and treatment. Considering this, it is important to show effect of IBC on both sexes. At this age, Aβ deposition and neuroinflammation has already progressed in these mice. We have used IBC as a curative drug rather than a preventive drug. Prior to the initiation of the study, all the animals were acclimatized for 1 week under standard laboratory conditions; animals were drug naive with no prior procedures performed. All testing were performed from 1 to 4 p.m. […]
After the end of the experiment, blood was collected from the retinal orbital plexus of mice in EDTA-coated vials. […] The levels of Aβ in the plasma were measured by using the protein-specific ELISA kit.

5x-FAD mice = assay: Open field test; assay type: in vivo; details: 25 and 50 mg/kg oral, vs 5x-FAD control
Excerpt: Hemizygous 5x-FAD transgenic mice (B6.Cg-Tg(APPSwFlLon, PSEN1*M146L*L286V) 6799Vas/Mmjax; MMRRC Strain: 034848-JAX) on congenic C57BL/6J genetic background were used for experiments. The 5x-FAD mice were genotyped using APP-specific qPCR probes to detect the transgene as per the protocol of Jackson Laboratory. Six months old 5x-FAD mice were randomly divided into three groups (n = 5), based on their body weights, with three males and two females in each group. We used mixed-cohort of males and females for our study to exclude any gender biased effect of IBC. Also, AD symptoms are more pronounced in females than in males ([Aggarwal and Mielke, 2023]), making it possible that males and females respond differently to the drug and treatment. […]
To check the effect of IBC on the behavior of 5x-FAD mice, open field test (OFT), rotarod (Make; Ugo Basile, rota-rod for mice 7650) and radial arm maze (Make; Ugo Basile) tests were performed. […] After acclimatizing mice with rotarod for 5 days, their latency to fall was calculated on the day of analysis. […] Distance traveled, speed, time spent in corner and center zones and mobile episodes were recorded through an automated video tracking system using AnyMaze software. […] The movement of mice was tracked with the help of automated AnyMaze software connected with a tracking camera and various memory retention parameters were assessed.

GFAP = assay: Immunohistochemistry of GFAP in hippocampus; assay type: in vivo, 5x-FAD mice; details: 25 and 50 mg/kg, vs 5x-FAD control
Excerpt: as §1
Mice’s hippocampus tissue was fixed in 10% formalin. […] Images were taken in a CQ1 high throughput imaging system and analyzed using cell pathfinder software.

primary astrocytes = assay: Cell viability assay (MTT and SRB); assay type: cell-based, C57BL/6J mice; details: 24 h, up to 100 μM
Description: For cell viability assay, primary astrocytes were seeded in 96 well plate and IBC treatment at different concentration was given for 24 h. For MTT assay, cells were treated with 1.25, 2.5, 5, 10, 20, 40, 80 and 100 μM of IBC, while for the SRB assay, 0.625, 1.25, 2.5, 5, […], 20, 40, 80 and 100 μM IBC treatment was given. MTT dye at a concentration of 2.5 mg/ml was added 4 h before experiment termination. Formazan crystals thus formed were dissolved in DMSO and absorbance was measured at 570 nm.
For the SRB assay, the experiment was terminated by adding 50% chilled TCA into the wells for 1 h. Pellets were washed five times with distilled water and kept drying. Cells were then incubated with SRB dye for 30 min at RT, followed by washing with 1% acetic acid thrice. After drying, pellets were dissolved in 10 mM Tris-HCl (pH-10.5) and absorbance was measured at 540 nm.

Aβ42 [2] = assay: Aβ clearance assay in primary astrocytes; assay type: cell-based, C57BL/6J mice
Description: Aβ42-HiLyte fluor488 peptide was prepared following the manufacturer’s protocol (Anaspec Inc.). Primary astrocytes seeded on coverslips were treated with IBC (10 μM) or rapamycin (24 h). After 12 h, 2 μg/ml fluorochrome tagged (Hilyte fluor488) Aβ42 protein was added to cells for another 12 h. Bafilomycin A1 was given 3 h prior to experiment termination. After the end of the assay, cells were washed with PBS and cells were fixed with 4% PFA, permeabilized with Triton-X 100, and the nucleus was stained with DAPI, as mentioned above. Similarly, slides were prepared, and images were taken and analyzed in the CQ1 high throughput imaging system.
AMPK expression was knocked down from the cells by using siRNA against AMPK using FuGENE HD for 24 h. Primary astrocytes seeded in 6 well plates were incubated in OPTI-MEM media for 30 min prior to transfection. The transfection mixture was prepared and kept in sterile condition for 20 min before being added to the cells. Following this, cells were treated for NLRP3 inflammasome activation as described above.

For `CC(C)=CCc1c(O)ccc(C(=O)/C=C/c2ccc(O)cc2)c1O` [IBC, isobavachalcone], the “co-localization of LC3B and LAMP1” value (LC3B and LAMP1) was “proximity of LC3B and LAMP1”, the “Aβ42 in blood plasma” value (Aβ42 [1]) was “reduced levels” and the “exploratory behavior in open field” value (5x-FAD mice) was “improved exploratory behavior”. The “GFAP expression (IHC)” value (GFAP) was “significantly reduced”, the “toxicity in primary astrocytes (MTT and SRB)” value (primary astrocytes) was “no toxicity; also recorded: non-toxic” and the “intracellular Aβ level” value (Aβ42 [2]; 10 μM with bafilomycin A1) was “increased”. For the same compound, the “effect on clearance of Aβ” value (Aβ42 [2]; 10 μM with siAMPK) was “complete reversal” and the “intracellular Aβ42-HiLyte fluor488 fluorescence” value (Aβ42 [2]; 10 μM, 24 h, vs cells with Aβ alone) was “significantly low fluorescence”.
